One experiment has as its target T1, human GAL3 receptor (Homo sapiens, UniProt O60755).
T1 construct: expressed in transfected cells
T1 sequence (O60755 1-368): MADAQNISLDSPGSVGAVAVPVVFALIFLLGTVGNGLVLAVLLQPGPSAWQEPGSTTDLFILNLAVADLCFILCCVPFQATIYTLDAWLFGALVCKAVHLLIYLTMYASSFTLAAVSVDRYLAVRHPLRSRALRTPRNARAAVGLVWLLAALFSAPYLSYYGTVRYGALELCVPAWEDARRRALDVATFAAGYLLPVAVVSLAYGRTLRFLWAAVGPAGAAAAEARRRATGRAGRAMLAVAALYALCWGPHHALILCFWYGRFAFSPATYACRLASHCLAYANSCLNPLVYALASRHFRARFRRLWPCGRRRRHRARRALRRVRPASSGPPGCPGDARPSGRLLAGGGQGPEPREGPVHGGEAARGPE
The experiment is described as follows: Radioligand binding at cloned human GAL3 receptor. On the procedure:
(§1) The present invention provides for a method of determining the binding affinity of a GAL3 antagonist, wherein the GAL3 antagonist is dissolved in a “suitable solvent”. A “suitable solvent” means one which permits the measurement of binding affinity of the GAL3 antagonist to the human GAL3 receptor at concentrations less than 1 μM, preferably less than 100 nM. Examples of solvents include, but are not limited to, DMSO, ethanol, N,N-dimethylacetamide, or water. For indolones, the preferred solvent is 3% DMSO (final concentration in the assay). For pyrimidines, the preferred solvent is 1% ethanol/0.09% polypuronic acid F-127 (final concentration in the assay). For any other type of compounds, the preferred solvent is the solvent which permits the measurement of binding affinity of a GAL3 antagonist at the lowest concentration. Once a suitable solvent is ascertained for the binding assay of the human GAL3 receptor, the same solvent is used in assays to determine the binding affinity for instance, at the GAL1 receptor.
(§2) LM(tk−) cells were stably transfected with the human GAL1 or GAL3 receptor. CHO cells were stably transfected with the human GAL2 receptor.
(§3) cDNAs for the human and rat GAL1, and human and rat GAL3 receptors were transfected with a G-418 resistant gene into the mouse fibroblast LM(tk−) cell line by a calcium phosphate transfection method (Cullen, 1987). Stably transfected cells were selected with G-418. Human and rat GAL2 receptors were similarly transfected into CHO cells.
(§4) Membranes were harvested from stably transfected LM(tk−) cells. Adherent cells were washed twice in ice-cold phosphate buffered saline (138 mM NaCl, 8.1 mM Na2HPO4, […] KCl, 1.2 mM KH2PO4, 0.9 mM CaCl2, 0.5 mM MgCl2, pH 7.4) and lysed by sonication in ice-cold sonication buffer (20 mM Tris-HCl, 5 mM EDTA, pH 7.7). […] Protein concentration was measured by the Bradford method (Bradford, 1976) using Pio-Rad Reagent, with bovine serum albumin as a standard. […]
(§5) Binding data were analyzed using nonlinear regression and statistical techniques available in the GraphPAD Prism package (San, Diego, Calif.). […]

Another experiment has as its target T2, human GAL2 receptor (Homo sapiens, UniProt O43603).
T2 construct: expressed in transfected cells
T2 sequence (O43603 1-387): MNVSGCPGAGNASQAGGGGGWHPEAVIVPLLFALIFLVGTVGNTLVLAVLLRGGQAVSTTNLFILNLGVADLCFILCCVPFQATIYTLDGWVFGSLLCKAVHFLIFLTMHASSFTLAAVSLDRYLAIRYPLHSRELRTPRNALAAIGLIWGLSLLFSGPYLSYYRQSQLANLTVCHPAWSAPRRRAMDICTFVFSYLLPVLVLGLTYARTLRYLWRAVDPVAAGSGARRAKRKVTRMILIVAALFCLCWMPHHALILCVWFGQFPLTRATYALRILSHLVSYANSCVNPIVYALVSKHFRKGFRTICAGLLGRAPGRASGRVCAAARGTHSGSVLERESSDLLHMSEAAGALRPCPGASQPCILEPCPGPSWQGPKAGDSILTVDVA
The experiment is described as follows: Radioligand binding at cloned human GAL2 receptor. The settings on record: read-out: Ki (nM) GalR2. On the procedure: as §1, §2, §3, §4, §5

For a further experiment, the target named is T3, human GAL1 receptor (Homo sapiens, UniProt P47211).
T3 construct: expressed in transfected cells
T3 sequence (P47211 1-349): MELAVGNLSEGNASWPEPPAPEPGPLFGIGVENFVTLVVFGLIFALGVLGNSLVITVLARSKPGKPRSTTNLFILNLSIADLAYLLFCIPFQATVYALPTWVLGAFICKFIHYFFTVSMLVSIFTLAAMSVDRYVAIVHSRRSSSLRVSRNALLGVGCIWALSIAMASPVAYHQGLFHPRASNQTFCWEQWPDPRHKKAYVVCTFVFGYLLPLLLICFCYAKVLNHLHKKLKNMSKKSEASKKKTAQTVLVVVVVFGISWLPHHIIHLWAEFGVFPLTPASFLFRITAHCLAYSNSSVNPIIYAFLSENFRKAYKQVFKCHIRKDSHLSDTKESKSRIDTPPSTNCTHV
The experiment is described as follows: Radioligand binding at cloned human GAL1 receptor. Particulars: read-out: Ki (nM) GalR1. The method, then:
as §1, §2, §3
Membranes were harvested from stably transfected LM(tk−) cells. Adherent cells were washed twice in ice-cold phosphate buffered saline (138 mM NaCl, 8.1 mM Na2HPO4, […] KCl, 1.2 mM KH2PO4, 0.9 mM CaCl2, 0.5 mM MgCl2, pH 7.4) and lysed by sonication in ice-cold sonication buffer (20 mM Tris-HCl, 5 mM EDTA, pH 7.7). Large particles and debris were cleared by low speed centrifugation (200×g, 5 min, 4° C.). Membranes were collected from the supernatant fraction by centrifugation (32,000×g, 18 min, 4° C.), washed with ice-cold hypotonic buffer, and collected again by centrifugation (32,000×g, 18 min, 4° C.). The final membrane pellet was resuspended by sonication into a small volume of ice-cold binding buffer (˜1 ml for every 5 plates: 10 mM NaCl, […] HEPES, 0.22 mM KH2PO4, 1.26 mM Cal2, 0.81 mM MgSO4, pH 7.4). Protein concentration was measured by the Bradford method (Bradford, 1976) using Pio-Rad Reagent, with bovine serum albumin as a standard. Membranes were held on ice for up to one hour and used fresh, or flash frozen and stored in liquid nitrogen. Membranes were prepared similarly from CHO cells. […]
as §5

The structures appear in SMILES notation. Where two headings read alike, the source gives them in different places.

The text below walks through data of patent publication US7220775B2, “Compound useful for the treatment of neuropathic pain” (H. Lundbeck A/S, priority 2002, dated 2007).

For the compound `COc1ccc(N2CCN(c3nc(Nc4ccc(C)cc4)cc(N4CCCCC4)n3)CC2)c(OC)c1` [Example 28], the Ki was 270 nM on human GAL3 receptor (Table 1, pyrimidines, read-out: Ki (nM) GalR3); > 5000 nM at human GAL2 receptor (Table 1, pyrimidines); > 5000 nM at human GAL1 receptor (Table 1, pyrimidines).

With `CN(C)c1cc(N)nc(N(c2ccccc2)c2ccc(Cl)cc2)n1` [Example 58], the Ki on human GAL3 receptor (Table 2, pyrimidines, read-out: Ki (nM) GalR3) was 783 nM; on human GAL2 receptor (Table 2, pyrimidines), > 5000 nM; on human GAL1 receptor (Table 2, pyrimidines) it was > 5000 nM.

`CN(C)c1cc(NC2C3CC4CC(C3)CC2C4)nc(N2CCN(Cc3ccccc3)CC2)n1` (stereo not shown) [Example 137]: the Ki at human GAL3 receptor (Table 3a, pyrimidines, read-out: Ki (nM) Gal3) was found to be 124 nM.
